Paper PMC7932537, “Quantitative profiling of protease specificity” (PLoS Computational Biology, 2021)

Assays:
MMP-2 [1] = molecular target: T1, MMP-2 (Homo sapiens, UniProt P08253); experiment: K(obs) of individual phage substrates (set of 1369); format: biochemical; settings: MMP2
T1 sequence (P08253 110-660): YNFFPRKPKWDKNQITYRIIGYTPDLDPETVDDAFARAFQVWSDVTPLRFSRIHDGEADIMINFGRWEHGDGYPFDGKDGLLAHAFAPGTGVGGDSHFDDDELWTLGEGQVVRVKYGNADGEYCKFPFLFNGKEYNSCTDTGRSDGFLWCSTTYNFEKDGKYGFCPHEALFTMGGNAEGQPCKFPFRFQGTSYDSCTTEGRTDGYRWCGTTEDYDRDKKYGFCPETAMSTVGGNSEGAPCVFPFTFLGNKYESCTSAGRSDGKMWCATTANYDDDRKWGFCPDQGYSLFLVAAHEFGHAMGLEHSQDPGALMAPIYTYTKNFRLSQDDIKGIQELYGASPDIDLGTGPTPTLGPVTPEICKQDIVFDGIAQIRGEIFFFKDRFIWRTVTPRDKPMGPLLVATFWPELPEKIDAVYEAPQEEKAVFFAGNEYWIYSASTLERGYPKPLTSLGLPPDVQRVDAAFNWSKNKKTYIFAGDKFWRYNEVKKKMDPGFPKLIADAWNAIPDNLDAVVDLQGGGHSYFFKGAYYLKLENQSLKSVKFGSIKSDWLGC

MMP-9 = MMP-9 (Homo sapiens, UniProt P14780); experiment: as above; format: biochemical; settings: MMP9
MMP-2 [2] = experiment: Substrate phage display with NGS: relative probability (RP) of P3-P1' tetramer clusters; format: biochemical, human; settings: MMP2;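 also: ratio of tetramer probability after protease selection to that in naive phage library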
[3] = individual phage substrates, set of 1369 peptides, cleavage position marked by hyphen in sequence
[4] = individual phage substrates, set of 1369 peptides, hyphen in sequence marks cleavage position
[5] = RP of the P3-P1' tetramer contained in the substrate (substrate phage display with NGS)
[6] = individual phage substrate of the set of 1369 peptides, cleavage position marked by '-'
[7] = individual phage substrate of the set of 1369 peptides, dash in the sequence marks the cleavage position
[8] = RP of the P3-P1' tetramer contained in the substrate

Chain of MMP-9 (P14780 94-707): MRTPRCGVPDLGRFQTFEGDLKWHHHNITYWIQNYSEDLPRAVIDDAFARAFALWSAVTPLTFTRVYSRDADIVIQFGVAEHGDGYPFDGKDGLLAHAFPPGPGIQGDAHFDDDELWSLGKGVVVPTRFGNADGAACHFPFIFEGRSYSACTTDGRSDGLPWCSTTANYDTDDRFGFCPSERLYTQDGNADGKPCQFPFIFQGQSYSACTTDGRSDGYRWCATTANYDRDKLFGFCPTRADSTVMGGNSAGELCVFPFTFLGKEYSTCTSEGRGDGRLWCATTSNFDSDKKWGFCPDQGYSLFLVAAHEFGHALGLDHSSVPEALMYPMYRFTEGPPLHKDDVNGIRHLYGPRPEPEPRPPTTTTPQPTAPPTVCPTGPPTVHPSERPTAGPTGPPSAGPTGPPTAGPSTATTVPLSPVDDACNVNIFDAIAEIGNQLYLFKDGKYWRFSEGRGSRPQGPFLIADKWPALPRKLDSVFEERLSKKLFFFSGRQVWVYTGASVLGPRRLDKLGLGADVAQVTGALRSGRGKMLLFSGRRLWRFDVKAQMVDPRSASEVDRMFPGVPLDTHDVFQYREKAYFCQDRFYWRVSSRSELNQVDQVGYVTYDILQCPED

Row | Kobs (MMP-2 [1]; [3]) | Kobs (MMP-9; [4]) | Kobs (MMP-2 [1]; [6]) | Kobs (MMP-9; [7]) | Substance | relative probability (RP) (MMP-2 [2]; [5]) | relative probability (RP) (MMP-2 [2]; [8])
1 | 12792.1 M⁻¹ s⁻¹ | 12792.1 M⁻¹ s⁻¹ |  |  | GTPYP-LRTAS | 30.8058 | 
2 |  |  | 1373.05 M⁻¹ s⁻¹ | 799.117 M⁻¹ s⁻¹ | GVYQG-LRTAS |  | 4.332
3 | 3079.62 M⁻¹ s⁻¹ | 3637.04 M⁻¹ s⁻¹ |  |  | TKWLA-LTASG | 1.218 | 
4 | 12792.1 M⁻¹ s⁻¹ | 0 M⁻¹ s⁻¹ |  |  | EQLSF-LTASG | 14.5333 | 
5 |  |  | 1327.88 M⁻¹ s⁻¹ | 619.843 M⁻¹ s⁻¹ | PCHLA-LTASG |  | 11.3603
6 | 1154.21 M⁻¹ s⁻¹ | 0 M⁻¹ s⁻¹ |  |  | SMGSH-LTASG | 4.2785 | 
7 |  |  | 5269.78 M⁻¹ s⁻¹ | 7815.03 M⁻¹ s⁻¹ | TVPQM-ITASG |  | 16.6558
8 | 7386.83 M⁻¹ s⁻¹ | 12792.1 M⁻¹ s⁻¹ |  |  | SGPNY-IRATA | 6.689 | 
9 | 0 M⁻¹ s⁻¹ | 0 M⁻¹ s⁻¹ |  |  | SGWSN-LMRTA | 17.9326 | 
10 | 12792.1 M⁻¹ s⁻¹ | 3253.29 M⁻¹ s⁻¹ |  |  | NRPAS-WTASG | 32.4643 | 
11 |  |  | 2916.17 M⁻¹ s⁻¹ | 12792.1 M⁻¹ s⁻¹ | RAPLH-MTASG |  | 30.0095
12 |  |  | 12792.1 M⁻¹ s⁻¹ | 585.336 M⁻¹ s⁻¹ | MKWAA-YTASG |  | 15.6012
13 | 4205.91 M⁻¹ s⁻¹ | 7815.03 M⁻¹ s⁻¹ |  |  | SGPRW-MKGTA | 32.3694 | 
14 |  |  | 12792.1 M⁻¹ s⁻¹ | 12792.1 M⁻¹ s⁻¹ | GAPRS-LVTAS |  | 33.3704
15 |  |  | 3079.62 M⁻¹ s⁻¹ | 451.441 M⁻¹ s⁻¹ | HTSNW-LTASG |  | 9.68
16 |  |  | 12792.1 M⁻¹ s⁻¹ | 12792.1 M⁻¹ s⁻¹ | WLPRA-VTASG |  | 28.3444
17 |  |  | 12792.1 M⁻¹ s⁻¹ | 12792.1 M⁻¹ s⁻¹ | IGALA-LTASG |  | 22.1184
18 | 799.117 M⁻¹ s⁻¹ | 1711.63 M⁻¹ s⁻¹ |  |  | NKVYA-WTASG | 0.6193 | 
19 |  |  | 5667.28 M⁻¹ s⁻¹ | 10866.7 M⁻¹ s⁻¹ | VKPWA-LTASG |  | 31.9211
20 |  |  | 1327.88 M⁻¹ s⁻¹ | 4922.1 M⁻¹ s⁻¹ | GYPWA-WRTAS |  | 10.3227

Row | Kobs (MMP-2 [1]; [3]) | Kobs (MMP-9; [4]) | Kobs (MMP-2 [1]; [6]) | Kobs (MMP-9; [7]) | Substance | relative probability (RP) (MMP-2 [2]; [5]) | relative probability (RP) (MMP-2 [2]; [8])
21 |  |  | 1154.21 M⁻¹ s⁻¹ | 2097.28 M⁻¹ s⁻¹ | SGPRF-IRLTA |  | 22.3274
22 |  |  | 1711.63 M⁻¹ s⁻¹ | 874.197 M⁻¹ s⁻¹ | FDAQS-LTASG |  | 18.365
23 | 0 M⁻¹ s⁻¹ | 0 M⁻¹ s⁻¹ |  |  | GSVNY-LVTAS | 8.427 | 
24 |  |  | 142.481 M⁻¹ s⁻¹ | 0 M⁻¹ s⁻¹ | DNTFH-LTASG |  | 0.1298
25 |  |  | 12792.1 M⁻¹ s⁻¹ | 12792.1 M⁻¹ s⁻¹ | TVPYQ-LTASG |  | 25.4279
26 | 874.197 M⁻¹ s⁻¹ | 451.441 M⁻¹ s⁻¹ |  |  | GSFRG-LRTAS | 7.475 | 
27 |  |  | 3741.87 M⁻¹ s⁻¹ | 874.197 M⁻¹ s⁻¹ | GSMNS-LRTAS |  | 18.7113
28 | 8941.32 M⁻¹ s⁻¹ | 9740.44 M⁻¹ s⁻¹ |  |  | VKAYN-LTASG | 20.8713 | 
29 |  |  | 12792.1 M⁻¹ s⁻¹ | 12792.1 M⁻¹ s⁻¹ | SGAFN-LYSTA |  | 16.2959
30 | 292.668 M⁻¹ s⁻¹ | 142.481 M⁻¹ s⁻¹ |  |  | GKMFH-LITAS | 0.052 | 
31 | 10866.7 M⁻¹ s⁻¹ | 84.609 M⁻¹ s⁻¹ |  |  | GKLAS-LRTAS | 31.1996 | 
32 |  |  | 799.117 M⁻¹ s⁻¹ | 2687.73 M⁻¹ s⁻¹ | VPPRV-LTASG |  | 13.9079
33 | 0 M⁻¹ s⁻¹ | 0 M⁻¹ s⁻¹ |  |  | GGSGS-LVNLL | 7.225 | 
34 | 0 M⁻¹ s⁻¹ | 0 M⁻¹ s⁻¹ |  |  | SGARQ-LVLTA | 3.214 | 
35 |  |  | 5889.62 M⁻¹ s⁻¹ | 12792.1 M⁻¹ s⁻¹ | GAPMN-VVTAS |  | 12.9651
36 | 484.315 M⁻¹ s⁻¹ | 0 M⁻¹ s⁻¹ |  |  | ETMLA-LTASG | 5.6722 | 
37 | 0 M⁻¹ s⁻¹ | 0 M⁻¹ s⁻¹ |  |  | GRVEL-LYTAS | 0 | 
38 |  |  | 10866.7 M⁻¹ s⁻¹ | 0 M⁻¹ s⁻¹ | TFWGA-LTASG |  | 26.3441
39 | 171.876 M⁻¹ s⁻¹ | 1660.66 M⁻¹ s⁻¹ |  |  | RRVLM-MTASG | 2.736 | 
40 |  |  | 9740.44 M⁻¹ s⁻¹ | 8941.32 M⁻¹ s⁻¹ | GQPRS-WRTAS |  | 32.796

Row | Kobs (MMP-2 [1]; [3]) | Kobs (MMP-9; [4]) | Kobs (MMP-2 [1]; [6]) | Kobs (MMP-9; [7]) | Substance | relative probability (RP) (MMP-2 [2]; [5]) | relative probability (RP) (MMP-2 [2]; [8])
41 |  |  | 5889.62 M⁻¹ s⁻¹ | 4470.66 M⁻¹ s⁻¹ | RQWRA-LTASG |  | 22.4074
42 | 0 M⁻¹ s⁻¹ | 0 M⁻¹ s⁻¹ |  |  | GISQS-LITAS | 5.003 | 
43 | 0 M⁻¹ s⁻¹ | 0 M⁻¹ s⁻¹ |  |  | GAWHN-MRTAS | 0 | 
44 |  |  | 0 M⁻¹ s⁻¹ | 0 M⁻¹ s⁻¹ | TTYMS-LTASG |  | 0.07249
45 |  |  | 2837.92 M⁻¹ s⁻¹ | 3637.04 M⁻¹ s⁻¹ | RTPMA-MTASG |  | 30.2676
46 | 12792.1 M⁻¹ s⁻¹ | 12792.1 M⁻¹ s⁻¹ |  |  | SGPRP-LYHTA | 34.3303 | 
47 |  |  | 8321.48 M⁻¹ s⁻¹ | 12792.1 M⁻¹ s⁻¹ | NSPLS-YTASG |  | 31.2477
48 |  |  | 12792.1 M⁻¹ s⁻¹ | 12792.1 M⁻¹ s⁻¹ | GAPRF-LSTAS |  | 28.4443
49 |  |  | 12792.1 M⁻¹ s⁻¹ | 12792.1 M⁻¹ s⁻¹ | LSVFW-LTASG |  | 13.7679
50 | 12792.1 M⁻¹ s⁻¹ | 5667.28 M⁻¹ s⁻¹ |  |  | GLPTA-LRTAS | 32.8941 | 
51 |  |  | 1239.69 M⁻¹ s⁻¹ | 3438.54 M⁻¹ s⁻¹ | ERVWA-ITASG |  | 3.219
52 |  |  | 2218.08 M⁻¹ s⁻¹ | 3079.62 M⁻¹ s⁻¹ | SGPYP-LWKTA |  | 30.8058
53 | 1513.13 M⁻¹ s⁻¹ | 6131.32 M⁻¹ s⁻¹ |  |  | GMPWS-VTASG | 0.3793 | 
54 |  |  | 2097.28 M⁻¹ s⁻¹ | 6688.74 M⁻¹ s⁻¹ | SQPIH-MTASG |  | 18.8886
55 |  |  | 12792.1 M⁻¹ s⁻¹ | 12792.1 M⁻¹ s⁻¹ | RRPTN-LTASG |  | 31.0288
56 |  |  | 1711.63 M⁻¹ s⁻¹ | 690.17 M⁻¹ s⁻¹ | SEWQG-LTASG |  | 12.939
57 |  |  | 5269.78 M⁻¹ s⁻¹ | 12792.1 M⁻¹ s⁻¹ | GPVYN-LRTAS |  | 19.1818
58 | 874.197 M⁻¹ s⁻¹ | 113.394 M⁻¹ s⁻¹ |  |  | FQFEH-LTASG | 1.21 | 
